From PMC6906431, “Selective small molecule PARG inhibitor causes replication fork stalling and cancer cell death” (Nature Communications, 2019)
Like-named read-outs stand apart in the source and are kept apart here.

Legend:
[1] = Sulforhodamine B (SRB) cytotoxicity assay; settings: human, PC3 cells, Viability, without IR
[2] = tested on: PC3 cells; assay: Sulforhodamine B (SRB) cytotoxicity assay; settings: Homo sapiens, PC-3, 72 h, without IR
[3] = tested on: MRC-5 cells; assay: Sulforhodamine B (SRB) cytotoxicity assay; format: cell-based, human; settings: Homo sapiens, MRC5, 72 h
Procedure: (§1) Fig. 6 Selective inhibition of PARG by xanthine derivative JA2131. a Clonogenic survival assays of PC3, MDA-MB-231, and MCF-7 cells treated with PARGi. Cells were treated with either DMSO or 10 µM JA2131 for 2 h, irradiated with 3 Gy (MDA-MB-231 and MCF-7), 7 Gy (PC3) IR and grown for ~2 weeks, then colonies were fixed with methanol and stained with crystal violet. The results of three independent experiments are shown. Error bars = the standard error of the mean (SEM). b dose-response of JA2131 in MDA-MB-231 cells with and without IR. Cells were treated with designated concentrations of JA2131 for 2 h and then either left untreated or exposed to 3 Gy IR and allowed to recover for 1 h before lysis. Total protein was immunoblotted with anti-PAR antibody (upper panel), stripped and reprobed with anti-PCNA as a loading control. c MDA-MB-231 cells with stable scrambled shRNA (WT) or stable PARG shRNA, knockdown (KD), were treated with 5 μM JA2131 for 2 h, lysed and then total lysates were immunoblotted for anti-PAR (upper panel) followed by anti-PARG (upper middle panel), anti-PARP1 (lower middle panel) and anti-actin (bottom panel) antibody. […] Stable cells with scramble shRNA (control) and shPARG (PARG-KD) cells were treated with an increasing concentration of JA2131 for growth inhibitory IC50 determination. The data was normalized against 100% survival at the lowest inhibitor concentration. Error bars show the percent coefficient of variation. Equivalent concentrations of DMSO were used as a negative control. e The cytotoxicity of JA2131 along with PDD, Veliparib and Doxorubicin against MRC-5 cells. Error bars show the percent coefficient of variation. f CETSA for in-cell JA2131 target engagement. Normalized anti-PARG western blot intensities of three independent experiments were fitted as above and the estimated aggregation temperature (Tagg) is shown in the tabulated insert. Source Data are provided as a Source Data file.

[4] = Sulforhodamine B (SRB) cytotoxicity assay; format: cell-based, human; settings: human, MRC-5 cells
Procedure: as §1

[5] = tested on: PARG; settings: cited from earlier work

In the case of `COc1cccc2c1C(=O)c1c(O)c3c(c(O)c1C2=O)C[C@@](O)(C(=O)CO)C[C@@H]3O[C@H]1C[C@H](N)[C@H](O)[C@H](C)O1` [Doxorubicin], the viability at 72 h, 1.56 µM ([1]; log [concentration] μM 0.194) is reported as 17.2%, the viability at 72 h, 3.13 µM ([1]; log [concentration] μM 0.495) is reported as 11.1% and the viability at 72 h, 6.25 µM ([1]; log [concentration] μM 0.796) is reported as 10.1%. The viability at 72 h, 12.5 µM ([1]; log [concentration] μM 1.097) was 9.95%, the viability at 72 h, 25 µM ([1]; log [concentration] μM 1.398) was 9.74% and the viability at 72 h, 50 µM ([1]; log [concentration] μM 1.699) was 9.95%. It also gave a viability at 72 h, 100 µM ([1]; log [concentration] μM 2) of 10.6%, a viability at 72 h, 200 µM ([1]; log [concentration] μM 2.301) of 13.8% and a viability at 72 h, 0.78 µM ([1]; log [concentration] μM -0.107) of 58.5%. The viability at 72 h, 0.39 µM ([1]; log [concentration] μM -0.408) was 95%, the viability at 72 h, 0.098 µM ([1]; log [concentration] μM -1.009) was 100% and the IC50 [2] was 810 ± 300 nM. For the same compound, the IC50 [3] was 741 ± 100 nM, the viability at 72 h, 1.55 µM ([4]; log [concentration] μM 0.19) was 50.4% and the viability at 72 h, 3.09 µM ([4]; log [concentration] μM 0.49) was 47.4%. For the same compound, the viability at 72 h, 6.31 µM ([4]; log [concentration] μM 0.8) was 50%, the viability at 72 h, 12.6 µM ([4]; log [concentration] μM 1.1) was 50% and the viability at 72 h, 25.1 µM ([4]; log [concentration] μM 1.4) was 45.6%. It also gave a viability at 72 h, 0.776 µM ([4]; log [concentration] μM -0.11) of 71.7%, a viability at 72 h, 0.389 µM ([4]; log [concentration] μM -0.41) of 96.5% and a viability at 72 h, 0.195 µM ([4]; log [concentration] μM -0.71) of 100%.

In the case of `Nc1ncnc2c1ncn2[C@@H]1O[C@H](CO[P@](=O)(O)O[P@@](=O)(O)OC[C@H]2NC[C@H](O)[C@@H]2O)[C@@H](O)[C@H]1O` [ADP-HPD, adenosine diphosphate (hydroxymethyl)pyrrolidinediol, reference compound], the IC50 ([5]; read-out: IC50, published values) is listed as 100 to 1400 nM.

In the case of `O=C(OC[C@H]1O[C@@H](OC(=O)c2cc(O)c(O)c(OC(=O)c3cc(O)c(O)c(O)c3)c2)[C@H](OC(=O)c2cc(O)c(O)c(OC(=O)c3cc(O)c(O)c(O)c3)c2)[C@@H](OC(=O)c2cc(O)c(O)c(OC(=O)c3cc(O)c(O)c(O)c3)c2)[C@@H]1OC(=O)c1cc(O)c(O)c(OC(=O)c2cc(O)c(O)c(O)c2)c1)c1cc(O)c(O)c(OC(=O)c2cc(O)c(O)c(O)c2)c1` [Gallotannin], the IC50 ([5]; read-out: IC50) is given as less than 5000 nM.
